Measurements published in patent US7220784B2, “Substituted stilbenes and their reactions” (priority 2000, dated 2007).
Where two headings read alike, the source gives them in different places.

Tests used:
A2780 = test: Cytotoxicity/growth inhibition assay (MTT), A2780; type: cell-based; conditions: read-out: A2780 IC50
Procedure: (§1) The following assays (1–5) were carried out as described in our paper (Woods, et al, British Journal of Cancer, 71, 705–711 (1995)). In addition to the cell lines described in this paper, other established human cell lines (K562, HUVEC, H460, BE, H529, and HT29) were used in the cytotoxicity/growth inhibition assay. • (1) Inhibition of tubulin assembly. The figure quoted is the concentration required to reduce assembly of tubulin by 50%. Tubulin assembly is monitored by light scatter/absorption at 350 nm.
(§2) (2) Competition for the colchicine binding site on tubulin. The figure quoted represents the % of ^3H-colchicine bound following co-incubation of test compound and ^3H-cochicine with isolated tubulin. Where ester pro-drugs were used the experiments were carried out in the presence and absence of porcine liver esterase. • (3) Cytotoxicity/growth inhibition assay. This was carried out by the MTT assay. • (4) Permeability (shape-change) assay in endothelial cells. This was carried out using a method based on that of Watts et al. (Anticancer Res., 17, 71–75, (1997)). This involved the diffusion of a fluorescently labelled dextran through a barrier of endothelial cells (HUVEC) grown to confluence on a porous membrane. The effect of agents to alter the shape of these cells results in an increase in the permeability of the cells to the dye. The figure represents the increase in permeability over control cultures when drug is added (30 minutes, 1 mM.). • (5) Experiments to study the anti-vascular effects of these agents were carried out as described previously by our group. (Zhao et al, European Journal of Nuclear Medicine, 26, 231–238 (1999)). The anti-vascular effects of the agents were monitored by either positron emission tomography (PET) or by histologogical examination following treatment of mice bearing T50:80 murine breast tumours, or H460 human lung tumours. • (6) Anti-tumour efficacy of agents was determined in xenografts of H460 human lung cancer. Animals (n=5) were trated either with 5 daily injections and tumour size measured with time following treatment. • (7) The pharmacokinetic profile of agents was determined in mice following injection with drug. Blood was taken at various times following treatment and analysed by HPLC with UV detection. The HPLC conditions were isocratic using a 5 micron C18 BDS column (150×4.6) ad eluting with 75% MeOH in water with a detection wavelength of 290 nm. […] (AND(P)H:quinone oxidoreductace, EC 1.6.99.2). DT-diaphorase is an enzyme over-expressed in a number of human tumours. […] This two-electron reducing enzyme can be used to selectively activate prodrugs within cancers which over-express the enzyme.

[1] = system: P388 murine leukaemia cell line; test: Cytotoxicity/growth inhibition assay (MTT), P388; type: cell-based
Procedure: as §2, with “This was carried out using a method based on that of Watts et al. (Anticancer Res., 17, 71–75, (1997)).” left out, “(Zhao et al, European Journal of Nuclear Medicine, 26, 231–238 (1999)).” left out, “detection.” for “detection. The HPLC conditions were isocratic using a 5 micron C18 BDS column (150×4.6) ad eluting with 75% MeOH in water with a detection wavelength of 290 nm.”

[2] = system: K562 human myelogeneous leukaemia cell line; test: Cytotoxicity/growth inhibition assay (MTT), K562; type: cell-based; conditions: MTT, read-out: K562 IC50
Text: as §1, with “In” for “The following assays (1–5) were carried out as described in our paper (Woods, et al, British Journal of Cancer, 71, 705–711 (1995)). In”
as §2, with “This was carried out using a method based on that of Watts et al. (Anticancer Res., 17, 71–75, (1997)).” left out, “(Zhao et al, European Journal of Nuclear Medicine, 26, 231–238 (1999)).” left out, “detection.” for “detection. The HPLC conditions were isocratic using a 5 micron C18 BDS column (150×4.6) ad eluting with 75% MeOH in water with a detection wavelength of 290 nm.”

tubulin [3] = test: CD IC50 (Tables 12-26, abbreviation not defined); type: binding
tubulin [4] = test: MA IC50 (Tables 12-26, abbreviation not defined); type: biochemical
K562 = K562 cell cycle analysis; type: cell-based, human; conditions: K562; for % of cells in G0–G1 / % of cells in G2-M / % of cells in S phase: of cells with DNA content = 2 n or >2 n

SMILES: COc1cc(C=Cc2ccc(C=O)cc2)cc(OC)c1OC [Compound 96-188]
- IC50 (A2780): 0.081 µM
- IC50 ([1]; MTT): 0.32 µM

SMILES: Cc1ccc(/C=C/c2ccc(C)c([N+](=O)[O-])c2)cc1C [Compound 152]
- IC50 [2]: > 50 µM
- IC50 (tubulin [3]): > 25 µM
- IC50 (tubulin [4]): > 10 µM
- IC50 ([1]; MTT): > 50 µM

SMILES: Cc1ccc(C=Cc2ccc(C)c([N+](=O)[O-])c2)cc1C [Compound 151]
- IC50 ([2]; Homo sapiens, K562): 1.5 µM
- IC50 (tubulin [3]): > 25 µM
- IC50 (tubulin [4]): > 10 µM
- IC50 ([1]; Mus musculus, P388, MTT): 9.7 µM

SMILES: COc1ccc(C=Cc2ccc(C)c(C)c2)cc1[N+](=O)[O-] [Compound 139]
- IC50 ([2]; Homo sapiens, K562): 1.8 µM
- IC50 (tubulin [3]): > 25 µM
- IC50 (tubulin [4]): > 10 µM
- IC50 ([1]; Mus musculus, P388, MTT): 20 µM

SMILES: COc1ccc(/C=C/c2ccc(C)c(C)c2)cc1[N+](=O)[O-] [Compound 140]
- IC50 [2]: 24 µM
- IC50 (tubulin [3]): > 25 µM
- IC50 (tubulin [4]): > 10 µM
- IC50 ([1]; MTT): > 50 µM

SMILES: COc1cc(/C=C\c2cccc(O)c2)cc(OC)c1OC [Compound 101]
- IC50 ([2]; Homo sapiens, K562): 0.14 µM
- IC50 (tubulin [3]): > 25 µM
- IC50 (tubulin [4]): > 10 µM
- IC50 ([1]; Mus musculus, P388, MTT): 0.3 µM

SMILES: COc1ccc(C=Cc2ccc(C)c(C)c2)cc1Br [Compound 143]
- IC50 ([2]; Homo sapiens, K562): 1.15 µM
- IC50 (tubulin [3]): > 25 µM
- IC50 (tubulin [4]): > 10 µM
- IC50 ([1]; Mus musculus, P388, MTT): 2.5 µM

SMILES: COc1ccc(C=Cc2ccc(C)c(C)c2)cc1 [Compound 141]
- IC50 ([2]; Homo sapiens, K562): 1.6 µM
- IC50 (tubulin [3]): > 25 µM
- IC50 (tubulin [4]): > 10 µM
- IC50 ([1]; Mus musculus, P388, MTT): 4.9 µM

SMILES: COc1cc(/C=C/c2ccc(C)c(C)c2)cc(OC)c1OC [Compound 104]
- IC50 [2]: 35.8 µM
- IC50 (tubulin [3]): > 25 µM
- IC50 (tubulin [4]): > 10 µM
- IC50 ([1]; MTT): 20 µM

SMILES: COc1ccc(C(C)=Cc2cc(OC)c(OC)c(OC)c2)cc1O [Compound 200]
- IC50 ([2]; Homo sapiens, K562): 2 µM
- IC50 (tubulin [3]): > 25 µM
- IC50 (tubulin [4]): 9 µM
- IC50 ([1]; Mus musculus, P388, MTT): 7 µM

SMILES: COc1ccc(C=Cc2ccc(C)c(C)c2)cc1F [Compound 147]
- IC50 ([2]; Homo sapiens, K562): 0.09 µM
- IC50 (tubulin [3]): > 25 µM
- IC50 (tubulin [4]): 6.57 µM
- % of cells with DNA content <2 n (K562): 28%
- % of cells in G0–G1 (K562): 10%
- % of cells in G2-M (K562): 57%
- % of cells in S phase (K562): 33%
- IC50 ([1]; Mus musculus, P388, MTT): 1.7 µM

SMILES: COc1ccc(/C=C/c2ccc(C)c(C)c2)cc1F [Compound 148]
- IC50 [2]: 2.5 µM
- IC50 (tubulin [3]): > 25 µM
- IC50 (tubulin [4]): > 10 µM
- IC50 ([1]; MTT): 36 µM

SMILES: COc1ccc(C=Cc2ccc(C)c(C)c2)cc1O [Compound 146]
- IC50 ([2]; Homo sapiens, K562): 0.07 µM
- IC50 (tubulin [3]): 12.5 µM
- IC50 (tubulin [4]): 3.09 µM
- % of cells with DNA content <2 n (K562): 31%
- % of cells in G0–G1 (K562): 8%
- % of cells in G2-M (K562): 65%
- % of cells in S phase (K562): 27%
- IC50 ([1]; Mus musculus, P388, MTT): 0.4 µM
